Results published in publication PMC4339681, “2- and 3-substituted imidazo[1,2-a]pyrazines as inhibitors of bacterial type IV secretion” (Bioorganic & Medicinal Chemistry, 2014).

target: T1, VirB11 ATPase HP0525 (Helicobacter pylori, UniProt Q7BK04); assay: steady-state (Michaelis–Menten / Lineweaver–Burk) kinetics, mode of inhibition; assay type: biochemical; conditions: ATP 0 to 500 μM, with and without 10 μM of compound
Description: (§1) Assays for the activity of the HP0525 inhibitors were performed using a colorimetric ATPase assay (Innova Biosciences), see SI for details. The enzymatic reactions were performed in 96-well format for 30 min at 37 °C followed by measuring the absorbance at 620 nm, detecting the presence of inorganic phosphate product. […] Michaelis–Menten kinetics were performed under the same conditions as above but with various concentrations of ATP ranging from 0 to 500 μM, with and without 10 μM of compound 11. Both IC50 and Michaelis–Menten kinetics measurements were made in triplicate.
(§2) Michaelis-Menten kinetics were performed under the same conditions as above but with various concentrations of ATP ranging from 0 to 500 μM, with and without 10 μM of compound 11. Negative controls for each ATP concentration were used. GraphPad Prism version 5.0d for Mac OS X (GraphPad Software, San Diego California USA, www.graphpad.com) was used for the IC50 calculations using the Prism equation for non-linear normalized dose-response ‘Log(Inhibitor) vs. normalized response’ with Hill slope set to 1; and for Michaelis-Menten and Lineweaver-Burk analysis.

T1 sequence (Q7BK04 entry or part of it): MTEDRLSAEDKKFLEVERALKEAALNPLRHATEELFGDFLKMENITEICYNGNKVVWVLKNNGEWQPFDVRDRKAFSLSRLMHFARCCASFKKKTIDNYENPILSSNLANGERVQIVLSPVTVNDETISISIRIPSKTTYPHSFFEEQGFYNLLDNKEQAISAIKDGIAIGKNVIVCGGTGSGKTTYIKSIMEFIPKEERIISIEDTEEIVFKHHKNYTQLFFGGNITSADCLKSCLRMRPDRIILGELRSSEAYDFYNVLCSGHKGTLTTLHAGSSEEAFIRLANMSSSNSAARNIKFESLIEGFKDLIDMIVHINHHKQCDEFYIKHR

Compound | mode of inhibition
Cc1ccc(S(=O)(=O)Nc2ccc(Nc3nccn4cc(-c5ccc6ccccc6c5)nc34)cc2)cc1 [Compound 11, 4-methyl-N-[4-[[2-(2-naphthyl)imidazo[1,2-a]pyrazine-8-yl]amino]phenyl]benzenesulfonamide] | competitive inhibitor

target: T1, VirB11 ATPase HP0525; assay: colorimetric in vitro ATPase assay (release of inorganic phosphate), IC50 estimation; assay type: biochemical; conditions: not given
Description: The HP0525 protein was produced recombinantly in Escherichia coli and purified to high purity as described previously.[10] The ATPase activity of HP0525 was measured by monitoring the release of inorganic phosphate (Pi) using an in vitro ATPase assay (see Section 4 and SI). Initially, the inhibitory effects of the compounds were evaluated by performing the ATPase assay with and without compound present at concentrations of 500 μM (or 250 μM), 50 μM and 5 μM (data not shown). The compounds with inhibitory activities were further analyzed for dose-dependency by estimating their IC50s (Fig. 2).
as §1
ATPase activity measurements were carried out using a colorimetric in vitro ATPase assay kit (Innova Biosciences), using 96-well ELISA microplates (Greiner Bio-One) with reaction volumes of 100 µL in each well. Multi-pipettes with either 8 tips or 96 tips were used. Enzymatic reactions were performed for 30 min at 37 °C followed by measuring the absorbance at 620 nm, detecting the presence of inorganic phosphate product. Each reaction contained 100 mM Tris–HCl, pH 7.5; 2.5 mM MgCl2; 125 μM ATP; 5% DMSO; 25 mM NaCl; 0.5 mM DTT and 0.053 μM HP0525, with or without inhibitor. In detail, the assay can be described in steps. Step 1: 48 μL of substrate buffer mix (providing the components Tris–HCl, pH 7.5; MgCl2; ATP and DMSO) was dispensed to each well. Step 2: 2 μL of compound (solublized in DMSO) was added to corresponding well. Step 3: Enzymatic reaction was started by the addition of 50 μL of protein (in 50 mM Tris-HCl, pH 7.5; 50 mM NaCl and 1 mM DTT) to the wells. Step 4: Reaction plates were incubated at 37 degrees for 30 min. Step 5: The reaction was stopped by the addition of 25 uL of Gold mix reagent, followed by vigorous mixing. After 2-5 min, 10 uL of stabilizer solution was added to the reaction. Step 6: After an additional 30 min incubation at room temperature, the absorbance at 620 nm was measured using a microplate reader.
In the negative control, the protein was added after the Gold mix, as described in the standard protocol of the Innova Biociences ATPase assay kit. As an alternative negative control, providing equivalent readouts, 10 mM EDTA could also be added at Step 2, then removing the catalytically essential Mg ions from the active site of HP0525.
as §2

Compound | IC50 [µM]
Cc1ccc(S(=O)(=O)Nc2nccn3c(-c4ccccc4Oc4ccccc4)cnc23)cc1 [Compound 2] | 96 ± 42
COc1ccc(-c2cnc3c(NS(=O)(=O)c4ccc(C)cc4)nccn23)cc1OC [Compound 3, N-[3-(3,4-dimethoxyphenyl)imidazo[1,2-a]pyrazine-8-yl]-4-methyl-benzenesulfonamide] | 144 ± 14
Cc1ccc(S(=O)(=O)Nc2nccn3c(-c4cc(C)cc(C)c4)cnc23)cc1 [Compound 4] | 154 ± 22
Cc1ccc(S(=O)(=O)Nc2ccc(Nc3nccn4c(-c5ccc6ccccc6c5)cnc34)cc2)cc1 [Compound 5, 4-methyl-N-[4-[3-(2-naphthyl)imidazo[1,2-a]pyrazine-8-yl]aminophenyl]benzenesulfonamide] | 20 ± 3
Cc1ccc(S(=O)(=O)Nc2ccc(Nc3nccn4c(-c5ccsc5)cnc34)cc2)cc1 [Compound 6, 4-methyl-N-[4-[[3-(3-thienyl)imidazo[1,2-a]pyrazine-8-yl]amino]phenyl]benzenesulfonamide] | 48 ± 7
Cc1ccc(S(=O)(=O)Nc2nccn3cc(-c4ccc5ccccc5c4)nc23)cc1 [Compound 7, 4-methyl-N-[2-(2-naphthyl)imidazo[1,2-a]pyrazine-8-yl]benzenesulfonamide] | 88 ± 14
Cc1ccc(S(=O)(=O)Nc2nccn3cc(-c4ccccc4Oc4ccccc4)nc23)cc1 [Compound 8, 4-methyl-N-[2-(2-phenoxyphenyl)imidazo[1,2-a]pyrazine-8-yl]benzenesulfonamide] | 82 ± 14
COc1ccc(-c2cn3ccnc(NS(=O)(=O)c4ccc(C)cc4)c3n2)cc1OC [Compound 9, N-[2-(3,4-dimethoxylphenyl)imidazo[1,2-a]pyrazine-8-yl]-4-methyl-benzenesulfonamide] | 167 ± 43
Cc1ccc(S(=O)(=O)Nc2nccn3cc(-c4cc(C)cc(C)c4)nc23)cc1 [Compound 10, N-[2-(3,5-dimethylphenyl)imidazo[1,2-a]pyrazine-8-yl]-4-methylbenzenesulfonamide] | 133 ± 16
Cc1ccc(S(=O)(=O)Nc2ccc(Nc3nccn4cc(-c5ccc6ccccc6c5)nc34)cc2)cc1 [Compound 11, 4-methyl-N-[4-[[2-(2-naphthyl)imidazo[1,2-a]pyrazine-8-yl]amino]phenyl]benzenesulfonamide] | 6 ± 1
Cc1ccc(S(=O)(=O)Nc2ccc(Nc3nccn4cc(-c5ccsc5)nc34)cc2)cc1 [Compound 12, 4-methyl-N-[4-[[2-(3-thienyl)imidazo[1,2-a]pyrazine-8-yl]amino]phenyl]benzenesulfonamide] | 99 ± 18
Cc1ccc(S(=O)(=O)Nc2ccc(Nc3nccn4cc(-c5ccccc5Oc5ccccc5)nc34)cc2)cc1 [Compound 13, 4-Methyl-N-(4-(2-(2-phenoxyphenyl)imidazo[1,2-a]pyrazin-8-ylamino)phenyl)benzenesulfonamide] | 18 ± 4
Nc1nccn2cc(-c3ccc4ccccc4c3)nc12 [Compound 25, 2-(Naphthalen-2-yl)imidazo[1,2-a]pyrazin-8-amine] | > 1000
Nc1ccc(Nc2nccn3cc(-c4ccc5ccccc5c4)nc23)cc1 [Compound 26, N^’-(2-(Naphthalen-2-yl)imidazo[1,2-a]pyrazin-8-yl)benzene-1,4-diamine] | 18 ± 5
CS(=O)(=O)Nc1ccc(Nc2nccn3cc(-c4ccc5ccccc5c4)nc23)cc1 [Compound 27, N-(4-(2-(Naphthalen-2-yl)imidazo[1,2-a]pyrazin-8-ylamino)phenyl)methanesulfonamide] | 61 ± 28
Cc1ccc(S(=O)(=O)Nc2ccc(Oc3nccn4cc(-c5ccc6ccccc6c5)nc34)cc2)cc1 [Compound 28, 4-Methyl-N-(4-(2-(naphthalen-2-yl)imidazo[1,2-a]pyrazin-8-yloxy)phenyl)benzenesulfonamide] | 29 ± 9
Cc1ccc(S(=O)(=O)Nc2ccc(CNc3nccn4cc(-c5ccc6ccccc6c5)nc34)cc2)cc1 [Compound 29, 4-Methyl-N-(4-((2-(naphthalen-2-yl)imidazo[1,2-a]pyrazin-8-ylamino)methyl)phenyl)benzenesulfonamide] | 75 ± 35
Cc1ccc(S(=O)(=O)NCCCNc2nccn3cc(-c4ccc5ccccc5c4)nc23)cc1 [Compound 30, 4-Methyl-N-(3-(2-(naphthalen-2-yl)imidazo[1,2-a]pyrazin-8-ylamino)propyl)benzenesulfonamide] | 58 ± 38
Cc1ccc(S(=O)(=O)NCCNc2nccn3cc(-c4ccc5ccccc5c4)nc23)cc1 [Compound 31, 4-Methyl-N-(2-(2-(naphthalen-2-yl)imidazo[1,2-a]pyrazin-8-ylamino)ethyl)benzenesulfonamide] | 7 ± 2
c1cncc(-c2cccc(Nc3nccn4cc(-c5ccc6ccccc6c5)nc34)c2)c1 [Compound 32, 2-(Naphthalen-2-yl)-N-(3-(pyridin-3-yl)phenyl)imidazo[1,2-a]pyrazin-8-amine] | 4 ± 1
O=S(=O)(Nc1ccc(Nc2nccn3cc(-c4ccc5ccccc5c4)nc23)cc1)c1cccc2cccnc12 [Compound 33, N-(4-((2-(Naphthalen-2-yl)imidazo[1,2-a]pyrazin-8-yl)amino)phenyl)quinoline-8-sulfonamide] | 7 ± 2
O=S(=O)(Nc1cccc(Nc2nccn3cc(-c4ccc5ccccc5c4)nc23)c1)c1cccc2cccnc12 [Compound 34, N-(3-((2-(Naphthalen-2-yl)imidazo[1,2-a]pyrazin-8-yl)amino)phenyl)quinoline-8-sulfonamide] | 7 ± 2
Cc1ccc(S(=O)(=O)Nc2ccc(Nc3nccn4ccnc34)cc2)cc1 [Compound 35, N-(4-(Imidazo[1,2-a]pyrazin-8-ylamino)phenyl)-4-methylbenzenesulfonamide] | > 1000
Cc1ccc(S(=O)(=O)Nc2ccc(Nc3nccn4cc(-c5cnc6ccccc6n5)nc34)cc2)cc1 [Compound 36, 4-Methyl-N-(4-(2-(quinoxalin-2-yl)imidazo[1,2-a]pyrazin-8-ylamino)phenyl)benzenesulfonamide] | 28 ± 6

same assay, conditions: 125 μM ATP, 0.053 μM HP0525, 5% DMSO, pH 7.5, 30 min at 37 °C, triplicate; read-out: IC50

Compound | IC50 [µM]
4-methyl-N-[2-(2-naphthyl)imidazo[1,2-a]pyrazine-8-yl]benzenesulfonamide [Compound 1] | 77 ± 16
N-(2-((6-Bromo-2-(naphthalen-2-yl)imidazo[1,2-a]pyrazin-8-yl)amino)ethyl)-4- methylbenzenesulfonamide [Compound 38] | 77 ± 20
N-(4-((6-Bromo-2-(naphthalen-2-yl)imidazo[1,2-a]pyrazin-8-yl)amino)phenyl)-4- methylbenzenesulfonamide [Compound 37] | 6 ± 2

same assay, conditions: ATPase assay

Compound | inhibitory activity in words
Nc1nccn2cc(-c3ccc4ccccc4c3)nc12 [Compound 25, 2-(Naphthalen-2-yl)imidazo[1,2-a]pyrazin-8-amine] | complete loss of activity
Cc1ccc(S(=O)(=O)Nc2ccc(Nc3nccn4ccnc34)cc2)cc1 [Compound 35, N-(4-(Imidazo[1,2-a]pyrazin-8-ylamino)phenyl)-4-methylbenzenesulfonamide] | complete loss of activity
